Where “and” joins values, the source holds several entries; their conditions need not be identical. Identical values can stand only once.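 Cells were grown in 96-well plates and exposed to each compound for 48 hours at five concentrations; endpoints were interpolated linearly between bracketing concentrations, or set to the highest concentration if not reached. GI50 = concentration required for 50% inhibition of growth. Definition used: TGI = concentration required for complete inhibition of growth.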
How the values were obtained:
Assay in all cases: NCI-60 cell line screen, 48 h
TK-10 renal = tested on: TK-10 renal
DLD-1 colon = tested on: DLD-1 colon
SW-620 colon = tested on: SW-620 colon
OVCAR-3 ovarian = tested on: OVCAR-3 ovarian
K-562 leukemia = tested on: K-562 leukemia
UO-31 renal = tested on: UO-31 renal
RPMI-8226 leukemia = tested on: RPMI-8226 leukemia
SNB-78 CNS = tested on: SNB-78 CNS
CCRF-CEM leukemia = tested on: CCRF-CEM leukemia
SK-MEL-28 melanoma = tested on: SK-MEL-28 melanoma
RXF-631 renal = tested on: RXF-631 renal
EKVX NSCLC = tested on: EKVX NSCLC
IGROV1 ovarian = tested on: IGROV1 ovarian
M19-MEL melanoma = tested on: M19-MEL melanoma
HL-60(TB) leukemia = tested on: HL-60(TB) leukemia
UACC-257 melanoma = tested on: UACC-257 melanoma
HOP-92 NSCLC = tested on: HOP-92 NSCLC
SNB-19 CNS = tested on: SNB-19 CNS
COLO 205 colon = tested on: COLO 205 colon
SN12C renal = tested on: SN12C renal
KM20L2 colon = tested on: KM20L2 colon
HCT-116 colon = tested on: HCT-116 colon
RXF 393 renal = tested on: RXF 393 renal
A498 renal = tested on: A498 renal
MOLT-4 leukemia = tested on: MOLT-4 leukemia
ACHN renal = tested on: ACHN renal
SF-295 CNS = tested on: SF-295 CNS
786-0 renal = tested on: 786-0 renal
HCT-15 colon = tested on: HCT-15 colon
HCC-2998 colon = tested on: HCC-2998 colon
LXFL 529 NSCLC = tested on: LXFL 529 NSCLC
OVCAR-5 ovarian = tested on: OVCAR-5 ovarian
SR leukemia = tested on: SR leukemia
HOP-18 NSCLC = tested on: HOP-18 NSCLC
HOP-62 NSCLC = tested on: HOP-62 NSCLC
A549 NSCLC = tested on: A549 NSCLC
OVCAR-8 ovarian = tested on: OVCAR-8 ovarian
LOX IMVI melanoma = tested on: LOX IMVI melanoma
CAKI-1 renal = tested on: CAKI-1 renal
HT29 colon = tested on: HT29 colon
OVCAR-4 ovarian = tested on: OVCAR-4 ovarian
MALME-3M melanoma = tested on: MALME-3M melanoma
U251 CNS = tested on: U251 CNS
SK-MEL-2 melanoma = tested on: SK-MEL-2 melanoma
KM12 colon = tested on: KM12 colon
XF 498 CNS = tested on: XF 498 CNS
NCI-H460 lung = tested on: NCI-H460 lung
SF-268 CNS = tested on: SF-268 CNS
NCI-H522 lung = tested on: NCI-H522 lung
M14 melanoma = tested on: M14 melanoma
DMS 273 small cell lung = tested on: DMS 273 small cell lung
SF-539 CNS = tested on: SF-539 CNS
SNB-75 CNS = tested on: SNB-75 CNS
NCI-H23 lung = tested on: NCI-H23 lung
SK-MEL-5 melanoma = tested on: SK-MEL-5 melanoma
DMS 114 small cell lung = tested on: DMS 114 small cell lung
SK-OV-3 ovarian = tested on: SK-OV-3 ovarian
NCI-H226 lung = tested on: NCI-H226 lung
UACC-62 melanoma = tested on: UACC-62 melanoma

Compound: COc1cc2c(c(OC)c1OC)-c1ccc(SC)c(=O)cc1[C@@H](NCc1ccc(F)cc1)CC2
- GI50 (TK-10 renal): 0.182 µM
- TGI (TK-10 renal): 75 µM and > 100 µM
- TGI (DLD-1 colon): 75 µM and > 100 µM
- TGI (SW-620 colon): 18.8 µM and > 100 µM
- TGI (OVCAR-3 ovarian): < 0.0075 µM
- TGI (K-562 leukemia): 75 µM and > 100 µM
- GI50 (UO-31 renal): < 0.0075 µM
- TGI (UO-31 renal): 75 µM and 95.9 µM
- TGI (RPMI-8226 leukemia): 31.2 µM
- TGI (SNB-78 CNS): 65.6 µM and > 100 µM
- TGI (CCRF-CEM leukemia): 10.2 µM and > 100 µM
- TGI (SK-MEL-28 melanoma): 75 µM
- TGI (RXF-631 renal): 52.4 µM
- GI50 (EKVX NSCLC): < 0.0075 µM
- TGI (EKVX NSCLC): 75 µM and > 100 µM
- TGI (IGROV1 ovarian): 75 µM
- TGI (M19-MEL melanoma): 75 µM and 13.3 µM
- TGI (HL-60(TB) leukemia): > 100 µM
- TGI (UACC-257 melanoma): 44.1 µM and 55.7 µM
- TGI (HOP-92 NSCLC): 75 µM and 7.99 µM
- TGI (SNB-19 CNS): 75 µM
- TGI (COLO 205 colon): < 0.0075 µM
- TGI (SN12C renal): 20.8 µM
- TGI (KM20L2 colon): < 0.0075 µM
- TGI (HCT-116 colon): 0.079 µM
- TGI (RXF 393 renal): 75 µM and 19.5 µM
- TGI (A498 renal): 0.0265 µM
- TGI (MOLT-4 leukemia): 75 µM and > 100 µM
- TGI (ACHN renal): 75 µM and 49.2 µM
- TGI (SF-295 CNS): 22 µM and > 100 µM
- TGI (786-0 renal): 16.8 µM and 25 µM
- TGI (HCT-15 colon): 7.64 µM
- TGI (HCC-2998 colon): 11.3 µM
- TGI (LXFL 529 NSCLC): 10.1 µM and 18.2 µM
- TGI (OVCAR-5 ovarian): 75 µM and > 100 µM
- TGI (SR leukemia): 12.8 µM
- GI50 (HOP-18 NSCLC): > 100 µM
- TGI (HOP-18 NSCLC): 51.3 µM and > 100 µM
- TGI (HOP-62 NSCLC): 75 µM and 20.6 µM
- TGI (A549 NSCLC): 75 µM and > 100 µM
- TGI (OVCAR-8 ovarian): 75 µM
- TGI (LOX IMVI melanoma): 11.9 µM and 13.5 µM
- GI50 (CAKI-1 renal): < 0.0075 µM
- TGI (CAKI-1 renal): 51.7 µM and > 100 µM
- TGI (HT29 colon): < 0.0075 µM
- TGI (OVCAR-4 ovarian): > 100 µM
- TGI (MALME-3M melanoma): 34.2 µM and 28.4 µM

Compound: CC(C)(C)c1cc(CCC(=O)Nc2ccc(Cl)cc2)[nH]c(=S)n1
- TGI (U251 CNS): > 100 µM
- TGI (TK-10 renal): > 100 µM
- TGI (DLD-1 colon): > 100 µM
- TGI (SK-MEL-2 melanoma): > 100 µM
- TGI (SW-620 colon): > 100 µM
- TGI (OVCAR-3 ovarian): > 100 µM
- TGI (K-562 leukemia): > 100 µM
- TGI (KM12 colon): > 100 µM
- TGI (UO-31 renal): > 100 µM
- TGI (RPMI-8226 leukemia): > 100 µM
- TGI (CCRF-CEM leukemia): > 100 µM
- TGI (XF 498 CNS): > 100 µM
- TGI (SK-MEL-28 melanoma): > 100 µM
- TGI (RXF-631 renal): > 100 µM
- TGI (EKVX NSCLC): > 100 µM
- TGI (IGROV1 ovarian): > 100 µM
- TGI (M19-MEL melanoma): > 100 µM
- TGI (HL-60(TB) leukemia): > 100 µM
- TGI (NCI-H460 lung): > 100 µM
- TGI (UACC-257 melanoma): > 100 µM
- TGI (SF-268 CNS): > 100 µM
- TGI (NCI-H522 lung): > 100 µM
- TGI (M14 melanoma): > 100 µM
- TGI (SNB-19 CNS): > 100 µM
- TGI (COLO 205 colon): > 100 µM
- TGI (SN12C renal): > 100 µM
- TGI (KM20L2 colon): > 100 µM
- TGI (DMS 273 small cell lung): > 100 µM
- TGI (RXF 393 renal): > 100 µM
- TGI (MOLT-4 leukemia): > 100 µM
- TGI (SF-539 CNS): > 100 µM
- TGI (ACHN renal): > 100 µM
- TGI (SF-295 CNS): > 100 µM
- TGI (SNB-75 CNS): > 100 µM
- TGI (786-0 renal): > 100 µM
- TGI (HCT-15 colon): > 100 µM
- TGI (NCI-H23 lung): > 100 µM
- TGI (HCC-2998 colon): > 100 µM
- TGI (SK-MEL-5 melanoma): > 100 µM
- TGI (LXFL 529 NSCLC): > 100 µM
- TGI (OVCAR-5 ovarian): > 100 µM
- TGI (DMS 114 small cell lung): > 100 µM
- TGI (HOP-18 NSCLC): > 100 µM
- TGI (HOP-62 NSCLC): > 100 µM
- TGI (SK-OV-3 ovarian): > 100 µM
- TGI (A549 NSCLC): > 100 µM
- TGI (NCI-H226 lung): > 100 µM
- TGI (OVCAR-8 ovarian): > 100 µM
- TGI (LOX IMVI melanoma): > 100 µM
- TGI (CAKI-1 renal): > 100 µM
- TGI (UACC-62 melanoma): > 100 µM
- TGI (HT29 colon): > 100 µM
- TGI (OVCAR-4 ovarian): > 100 µM
- TGI (MALME-3M melanoma): > 100 µM

Compound: CCCCCCCC/C=C1\CCC(CN(C)C)C1=O (centres undefined)
- TGI (U251 CNS): 4.38 µM
- TGI (TK-10 renal): 6.03 µM
- TGI (DLD-1 colon): 4.9 µM
- TGI (SK-MEL-2 melanoma): 24.6 µM
- TGI (SW-620 colon): 8.69 µM
- TGI (OVCAR-3 ovarian): 22 µM
- TGI (K-562 leukemia): 7.2 µM
- TGI (KM12 colon): 7.09 µM
- TGI (UO-31 renal): 25.2 µM
- TGI (RPMI-8226 leukemia): 0.763 µM
- TGI (SNB-78 CNS): 27.2 µM
- TGI (CCRF-CEM leukemia): 6.96 µM
- TGI (XF 498 CNS): 12.8 µM
- TGI (SK-MEL-28 melanoma): 13.3 µM
- TGI (RXF-631 renal): 17.9 µM
- TGI (EKVX NSCLC): 21.6 µM
- TGI (IGROV1 ovarian): 20.8 µM
- TGI (M19-MEL melanoma): 10.5 µM
- TGI (HL-60(TB) leukemia): 22.2 µM
- TGI (NCI-H460 lung): 28.4 µM
- TGI (UACC-257 melanoma): 16.8 µM
- TGI (HOP-92 NSCLC): 8.02 µM
- TGI (SF-268 CNS): 21.2 µM
- TGI (NCI-H522 lung): 13.3 µM
- TGI (M14 melanoma): 12 µM
- TGI (SNB-19 CNS): 30.4 µM
- TGI (COLO 205 colon): 14.8 µM
- TGI (SN12C renal): 14.6 µM
- TGI (KM20L2 colon): 19.8 µM
- TGI (HCT-116 colon): 7.34 µM
- TGI (DMS 273 small cell lung): 5.12 µM
- TGI (A498 renal): 30.7 µM
- TGI (MOLT-4 leukemia): 10.1 µM
- TGI (SF-539 CNS): 9.32 µM
- TGI (ACHN renal): 18.7 µM
- TGI (SF-295 CNS): 18 µM
- TGI (SNB-75 CNS): 14.1 µM
- TGI (786-0 renal): 2.88 µM
- TGI (HCT-15 colon): 7.5 µM
- TGI (NCI-H23 lung): 24.4 µM
- TGI (HCC-2998 colon): 22 µM
- TGI (SK-MEL-5 melanoma): 21.7 µM
- TGI (LXFL 529 NSCLC): 3.01 µM
- TGI (OVCAR-5 ovarian): 35.5 µM
- TGI (DMS 114 small cell lung): 13.6 µM
- TGI (SR leukemia): 13.1 µM
- TGI (HOP-18 NSCLC): 33.8 µM
- TGI (HOP-62 NSCLC): 24.7 µM
- TGI (SK-OV-3 ovarian): 30.9 µM
- TGI (A549 NSCLC): 39.9 µM
- TGI (NCI-H226 lung): 37.3 µM
- TGI (OVCAR-8 ovarian): 9.67 µM
- TGI (LOX IMVI melanoma): 4.09 µM
- TGI (CAKI-1 renal): 10 µM
- TGI (UACC-62 melanoma): 19.6 µM
- TGI (HT29 colon): 12.5 µM
- TGI (OVCAR-4 ovarian): 29.1 µM
- TGI (MALME-3M melanoma): 14.3 µM

Reference: PubChem BioAssay (NCI)
